Test results from ChEMBL document CHEMBL1154013, “Brain-penetrating 2-aminobenzimidazole H(1)-antihistamines for the treatment of insomnia” (Bioorg Med Chem Lett, 2009).

What was measured:
[1] = species: Homo sapiens; test: Selectivity for human muscarinic M1 receptor over human histamine H1 receptor
[2] = target: Cytochrome P450 3A4 (Homo sapiens, UniProt P08684); test: Inhibition of CYP3A4; assay type: ADME
[3] = target: Cytochrome P450 2D6 (Homo sapiens, UniProt P10635); test: Inhibition of CYP2D6; assay type: ADME
Sequence of Cytochrome P450 2D6 (P10635 whole entry): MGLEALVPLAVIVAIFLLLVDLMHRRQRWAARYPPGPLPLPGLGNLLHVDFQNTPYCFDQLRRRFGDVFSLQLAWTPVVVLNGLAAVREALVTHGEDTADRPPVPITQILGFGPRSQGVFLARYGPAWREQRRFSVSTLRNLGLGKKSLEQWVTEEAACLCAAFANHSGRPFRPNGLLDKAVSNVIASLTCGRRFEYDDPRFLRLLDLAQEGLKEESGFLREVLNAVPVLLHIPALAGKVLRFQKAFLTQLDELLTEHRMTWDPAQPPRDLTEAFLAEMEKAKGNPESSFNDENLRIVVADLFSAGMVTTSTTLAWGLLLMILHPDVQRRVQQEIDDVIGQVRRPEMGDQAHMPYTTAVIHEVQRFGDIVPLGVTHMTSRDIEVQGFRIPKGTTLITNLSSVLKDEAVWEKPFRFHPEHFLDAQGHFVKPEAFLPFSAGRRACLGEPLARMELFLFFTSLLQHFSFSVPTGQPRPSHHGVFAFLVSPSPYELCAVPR

[4] = target: T1, Voltage-gated inwardly rectifying potassium channel KCNH2 (Homo sapiens, UniProt Q12809); test: Displacement of [3H]dofetolide from human ERG channel expressed in HEK293 cells at 37 degC by liquid scintillation assay; assay type: cell-based
T1 sequence (Q12809 whole entry): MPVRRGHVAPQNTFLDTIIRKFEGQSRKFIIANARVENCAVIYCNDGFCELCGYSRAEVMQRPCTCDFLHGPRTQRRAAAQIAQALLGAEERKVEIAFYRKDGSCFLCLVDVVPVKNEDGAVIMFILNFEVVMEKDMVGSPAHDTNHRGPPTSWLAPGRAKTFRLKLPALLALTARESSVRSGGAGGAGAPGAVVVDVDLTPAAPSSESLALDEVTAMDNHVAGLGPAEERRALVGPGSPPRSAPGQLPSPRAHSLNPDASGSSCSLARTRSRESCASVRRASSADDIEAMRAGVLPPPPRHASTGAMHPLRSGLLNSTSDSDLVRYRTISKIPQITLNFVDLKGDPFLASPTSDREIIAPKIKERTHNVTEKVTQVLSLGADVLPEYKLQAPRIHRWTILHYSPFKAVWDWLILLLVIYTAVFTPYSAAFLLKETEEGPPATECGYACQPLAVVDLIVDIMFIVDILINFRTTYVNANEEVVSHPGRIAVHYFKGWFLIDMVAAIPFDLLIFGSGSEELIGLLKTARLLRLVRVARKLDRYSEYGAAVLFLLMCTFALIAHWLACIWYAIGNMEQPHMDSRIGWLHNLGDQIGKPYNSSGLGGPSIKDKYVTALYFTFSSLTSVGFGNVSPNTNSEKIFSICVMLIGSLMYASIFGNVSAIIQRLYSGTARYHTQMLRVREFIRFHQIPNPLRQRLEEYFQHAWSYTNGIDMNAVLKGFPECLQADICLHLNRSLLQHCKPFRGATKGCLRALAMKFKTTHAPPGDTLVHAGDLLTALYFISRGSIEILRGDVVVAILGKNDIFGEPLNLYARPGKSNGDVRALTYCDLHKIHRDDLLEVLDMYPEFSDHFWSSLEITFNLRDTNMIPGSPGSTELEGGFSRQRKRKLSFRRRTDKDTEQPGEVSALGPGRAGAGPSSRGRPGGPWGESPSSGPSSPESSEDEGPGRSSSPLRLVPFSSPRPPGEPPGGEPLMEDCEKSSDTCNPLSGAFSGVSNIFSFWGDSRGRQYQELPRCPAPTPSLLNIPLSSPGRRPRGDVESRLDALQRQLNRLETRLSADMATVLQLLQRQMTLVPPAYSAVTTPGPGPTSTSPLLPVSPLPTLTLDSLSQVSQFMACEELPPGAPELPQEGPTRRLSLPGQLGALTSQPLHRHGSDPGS

[5] = target: Histamine H1 receptor (Homo sapiens, UniProt P35367); test: Displacement of [3H]pyrilamine from human histamine H1 receptor expressed in CHO Flp-In cells by liquid scintillation assay; assay type: cell-based
Sequence of Histamine H1 receptor (P35367 whole entry): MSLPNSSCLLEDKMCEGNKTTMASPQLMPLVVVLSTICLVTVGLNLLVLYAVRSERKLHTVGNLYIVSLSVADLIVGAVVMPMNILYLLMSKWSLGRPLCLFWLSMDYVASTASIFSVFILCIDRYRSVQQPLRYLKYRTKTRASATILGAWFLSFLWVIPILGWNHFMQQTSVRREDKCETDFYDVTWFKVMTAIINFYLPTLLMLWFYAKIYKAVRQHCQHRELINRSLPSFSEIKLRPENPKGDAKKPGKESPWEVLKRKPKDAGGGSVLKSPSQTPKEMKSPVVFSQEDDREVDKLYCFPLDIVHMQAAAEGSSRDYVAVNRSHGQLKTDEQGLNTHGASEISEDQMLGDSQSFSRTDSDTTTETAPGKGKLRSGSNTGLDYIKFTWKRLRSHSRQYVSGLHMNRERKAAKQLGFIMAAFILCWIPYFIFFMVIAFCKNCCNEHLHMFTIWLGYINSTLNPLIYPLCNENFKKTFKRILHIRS

[6] = target: T2, Muscarinic acetylcholine receptor M1 (Homo sapiens, UniProt P11229); test: Displacement of [3H]N-methyl Scopolamine from human muscarinic M1 receptor expressed in CHO Flp-In cells by liquid scintillation assay; assay type: cell-based
T2 sequence (P11229 whole entry): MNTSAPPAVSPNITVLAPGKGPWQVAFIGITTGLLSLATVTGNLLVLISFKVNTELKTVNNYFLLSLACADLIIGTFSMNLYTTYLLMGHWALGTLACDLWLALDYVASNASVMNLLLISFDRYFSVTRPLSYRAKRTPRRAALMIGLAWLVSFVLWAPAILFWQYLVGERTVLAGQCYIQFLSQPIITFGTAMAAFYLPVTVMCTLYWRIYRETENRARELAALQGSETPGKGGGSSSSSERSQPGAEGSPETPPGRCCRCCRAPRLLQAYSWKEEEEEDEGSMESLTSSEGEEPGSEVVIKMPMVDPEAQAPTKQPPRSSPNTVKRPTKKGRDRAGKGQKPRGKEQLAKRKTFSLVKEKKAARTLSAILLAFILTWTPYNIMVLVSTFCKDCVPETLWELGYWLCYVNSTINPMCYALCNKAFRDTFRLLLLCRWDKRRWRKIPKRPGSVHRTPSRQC

[7] = system: Rattus norvegicus; test: Antihistamine activity in Wistar rat EEG/EMG model assessed as longest 3 REM bouts at 30 mg/kg, po administered during activity portion of diurnal cycle 6 hrs after lights-off measured in 6 hrs; assay type: functional
[8] = system: Rattus norvegicus; test: Antihistamine activity in Wistar rat EEG/EMG model assessed as rapid eye movement sleep stage latency at 30 mg/kg, po administered during activity portion of diurnal cycle 6 hrs after lights-off measured in 4 hrs; assay type: functional
[9] = system: Rattus norvegicus; test: Antihistamine activity in Wistar rat EEG/EMG model assessed as increase in time spent in non rapid eye movement sleep stage at 30 mg/kg, po administered during activity portion of diurnal cycle 6 hrs after lights-off measured in 4 hrs; assay type: functional
[10] = system: Rattus norvegicus; test: Antihistamine activity in Wistar rat EEG/EMG model assessed as non rapid eye movement sleep stage latency at 30 mg/kg, po administered during activity portion of diurnal cycle 6 hrs after lights-off measured in 4 hrs; assay type: functional
[11] = system: Rattus norvegicus; test: Antihistamine activity in Wistar rat EEG/EMG model assessed as rapid eye movement sleep stage at 30 mg/kg, po administered during activity portion of diurnal cycle 6 hrs after lights-off measured in 4 hrs; assay type: functional
[12] = Ratio of drug level in brain to plasma in rat at 30 mg/kg, po after 4 hrs; assay type: ADME, organism-based; set-up: dose 30 mg/kg, route oral
[13] = system: Brain; test: Biodistribution in rat brain assessed per gram of tissue at 1 mg/kg, iv after 2 hrs; assay type: ADME, organism-based; set-up: dose 1 mg/kg, route intravenous; conditions: in vivo
[14] = Clearance in Sprague-Dawley rat at 10 mg/kg, po; assay type: ADME, organism-based; set-up: dose 10 mg/kg, route oral; conditions: in vivo
[15] = system: Brain; test: Biodistribution in rat brain at 1 mg/kg, iv after 2 hrs in presence of triprolidine; assay type: ADME, organism-based; set-up: dose 1 mg/kg, route intravenous; conditions: in vivo
[16] = system: Brain; test: Biodistribution in Sprague-Dawley rat brain at 10 mg/kg, po assessed per gram of tissue after 4 hrs; conditions: in vivo
[17] = Bioavailability in Sprague-Dawley rat at 5 mg/kg, iv; assay type: ADME, organism-based; conditions: in vivo, read-out: Drug uptake
[18] = system: Rattus norvegicus; test: Antihistamine activity in Wistar rat EEG/EMG model assessed as longest 3 NREM bouts at 30 mg/kg, po administered during activity portion of diurnal cycle 6 hrs after lights-off measured in 6 hrs; assay type: functional
[19] = system: Plasma; test: Drug level in rat plasma assessed per gram of tissue at 1 mg/kg, iv after 2 hrs; assay type: ADME, organism-based; set-up: dose 1 mg/kg, route intravenous; conditions: in vivo
[20] = Ratio of drug level in brain to plasma in rat at 10 mg/kg, po after 4 hrs; assay type: ADME, organism-based; set-up: dose 10 mg/kg, route oral
[21] = Drug level in Sprague-Dawley rat plasma at 10 mg/kg, po after 4 hrs; conditions: read-out: Drug uptake
[22] = Ratio of drug level in brain to plasma in rat at 1 mg/kg, iv after 2 hrs; assay type: ADME, organism-based; set-up: dose 1 mg/kg, route intravenous
[23] = system: Caco-2; test: Ratio of permeability from apical to basolateral side to basolateral to apical side in human Caco-2 cells; assay type: ADME, cell-based
[24] = Apparent permeability across human Caco-2 cell membrane; assay type: ADME, cell-based
[25] = target: T1, Voltage-gated inwardly rectifying potassium channel KCNH2; test: Inhibition of human ERG channel expressed in HEK293 cells by patch clamp assay; assay type: cell-based

Sequence of Cytochrome P450 3A4 (P08684 whole entry): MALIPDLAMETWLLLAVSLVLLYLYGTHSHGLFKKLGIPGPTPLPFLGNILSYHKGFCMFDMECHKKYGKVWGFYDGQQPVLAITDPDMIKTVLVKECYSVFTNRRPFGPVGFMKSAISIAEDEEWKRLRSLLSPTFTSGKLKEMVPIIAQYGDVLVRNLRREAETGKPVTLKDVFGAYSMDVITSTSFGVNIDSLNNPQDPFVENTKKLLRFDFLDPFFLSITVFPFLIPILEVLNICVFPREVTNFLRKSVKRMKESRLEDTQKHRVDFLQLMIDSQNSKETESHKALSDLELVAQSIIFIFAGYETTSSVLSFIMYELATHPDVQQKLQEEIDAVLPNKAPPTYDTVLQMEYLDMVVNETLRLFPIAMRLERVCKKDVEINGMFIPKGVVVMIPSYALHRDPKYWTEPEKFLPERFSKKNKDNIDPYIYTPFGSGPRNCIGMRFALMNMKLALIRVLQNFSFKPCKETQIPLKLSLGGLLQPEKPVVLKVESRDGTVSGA

Fc1ccc(Cn2c(N3CCC(NCC4CCOCC4)CC3)nc3ccccc32)cc1
Selectivity ratio [1]: > 1000
IC50 [2]: > 5000 nM
IC50 ([3]; read-out: IC50): 12100 nM
Ki [4]: 426 nM
Ki ([5]; read-out: Ki): 4.5 nM

CN(CCO)C1CCN(c2nc3ccccc3n2Cc2ccc(F)cc2)CC1
Selectivity ratio [1]: > 1000
IC50 [2]: > 5000 nM
IC50 ([3]; read-out: IC50): 35100 nM
Ki [4]: 116 nM
Ki ([5]; read-out: Ki): 3.2 nM

CN(Cc1ccccc1)C1CCN(c2nc3ccccc3n2Cc2ccc(F)cc2)CC1
Ki ([6]; read-out: Ki): 3580 nM
IC50 [3]: 805 nM
Ki ([5]; read-out: Ki): 3.6 nM

Cc1ccc(-c2nc3ccc(C)cn3c2CC(=O)N(C)C)cc1 [ZOLPIDEM]
Time [7]: 1.4 min
Time [8]: 186 min
Activity [9]: 48.3%
Time [10]: 7 min
Activity [11]: 0.4%

Fc1ccc(Cn2c(N3CCC(n4cccc4)CC3)nc3ccccc32)cc1
Selectivity ratio [1]: > 1000
IC50 [2]: > 5000 nM
IC50 ([3]; read-out: IC50): 1530 nM
Ki [4]: 157 nM
Ki ([5]; read-out: Ki): 59.3 nM

CN(CC1CCCCC1)C1CCN(c2nc3ccccc3n2Cc2ccc(F)cc2)CC1
Ki [6]: 3860 nM
IC50 ([3]; read-out: IC50): 360 nM
Ki [5]: 4.4 nM

COc1ccc(Cn2c(N3CCC(NCC4CCOCC4)CC3)nc3ccccc32)cc1
Selectivity ratio [1]: > 1000
IC50 [2]: > 5000 nM
IC50 ([3]; read-out: IC50): 16300 nM
Ki [4]: 1460 nM
Ki ([5]; read-out: Ki): 14.1 nM

CNC1CCN(c2nc3ccccc3n2Cc2ccc(F)cc2)CC1
Ki ([6]; read-out: Ki): 988 nM
IC50 [3]: 6660 nM
Ki ([5]; read-out: Ki): 2.4 nM

CN(c1ccccc1)C1CCN(c2nc3ccccc3n2Cc2ccc(F)cc2)CC1
Ki [6]: > 10000 nM
IC50 ([3]; read-out: IC50): > 20000 nM
Ki [5]: 80.5 nM

Cc1cnn(C2CCN(c3nc4ccccc4n3Cc3ccc(F)cc3)CC2)c1
Kp at 4 h [12]: 2.3

COc1ccc(Cn2c(N3CCC(N(C)CC4CCOCC4)CC3)nc3ccccc32)cc1
Selectivity ratio [1]: > 1000
IC50 [2]: > 5000 nM
IC50 ([3]; read-out: IC50): 8180 nM
Ki [4]: 102 nM
Ki ([5]; read-out: Ki): 14.1 nM

Fc1ccc(Cn2c(N3CCC(n4ccnc4)CC3)nc3ccccc32)cc1
Selectivity ratio [1]: > 1000
IC50 [2]: 72 nM
IC50 ([3]; read-out: IC50): 1120 nM
Ki [4]: 137 nM
Ki ([5]; read-out: Ki): 1.3 nM

CN(CC1CCOCC1)C1CCN(c2nc3ccccc3n2Cc2ccc(F)cc2)CC1
Drug uptake [13]: 104 ng/g
Time [7]: 0.5 min
IC50 [2]: > 5000 nM
CL/F [14]: 134 mL/min/kg
Drug uptake [15]: 39.4 ng
Time [8]: 110 min
Drug uptake [16]: 94 ng/g
bioavailability [17]: 2%
Time [18]: 11 min
Drug uptake [19]: 19.2 ng/g
Activity [9]: 47.2%
Time [10]: 21 min
IC50 ([3]; read-out: IC50): 11000 nM
Kp at 4 h [20]: 10
Activity [11]: 2.6%
concentration at 4 h [21]: 9 ng/mL
Kp at 2 h [22]: 6.3

CN(C)CCN(C)C1CCN(c2nc3ccccc3n2Cc2ccc(F)cc2)CC1
Selectivity ratio [1]: > 1000
IC50 [2]: > 5000 nM
IC50 ([3]; read-out: IC50): 6130 nM
Ki [4]: 776 nM
Ki ([5]; read-out: Ki): 2.9 nM

COc1ccc(Cn2c(N3CCC(n4cc(C)cn4)CC3)nc3ccccc32)cc1
Selectivity ratio [1]: > 1000
IC50 [2]: > 5000 nM
IC50 ([3]; read-out: IC50): 7320 nM
Ki [4]: > 5000 nM
Ki ([5]; read-out: Ki): 7.1 nM

COc1ccc(Cn2c(N3CCC(N(C)C)CC3)nc3ccccc32)cc1
IC50 [2]: > 5000 nM
IC50 ([3]; read-out: IC50): 6070 nM
Ki ([5]; read-out: Ki): 2.4 nM

Fc1ccc(Cn2c(N3CCC(n4cccn4)CC3)nc3ccccc32)cc1
IC50 [2]: > 5000 nM
IC50 ([3]; read-out: IC50): 1480 nM
Ki ([5]; read-out: Ki): 18.3 nM

CN(c1ncccn1)C1CCN(c2nc3ccccc3n2Cc2ccc(F)cc2)CC1
Ki ([6]; read-out: Ki): > 10000 nM
IC50 [3]: 1040 nM
Ki ([5]; read-out: Ki): 75.2 nM

CN(C1CCCCC1)C1CCN(c2nc3ccccc3n2Cc2ccc(F)cc2)CC1
Ki ([6]; read-out: Ki): 2740 nM
IC50 [3]: 2050 nM
Ki ([5]; read-out: Ki): 2.8 nM

O=C1CCCCN1C1CCN(c2nc3ccccc3n2Cc2ccc(F)cc2)CC1
Selectivity ratio [1]: > 1000
Ratio [23]: 0.6
IC50 [2]: > 5000 nM
IC50 ([3]; read-out: IC50): 4350 nM
Papp [24]: 12.4 ×10⁻⁶ cm/s
Ki [4]: > 7500 nM
Ki ([5]; read-out: Ki): 6.6 nM

Cc1ccc(Cn2c(N3CCC(N(C)C)CC3)nc3ccccc32)cc1
Selectivity ratio [1]: > 1000
IC50 [2]: > 5000 nM
IC50 ([3]; read-out: IC50): 7210 nM
Ki [4]: 73 nM
Ki ([5]; read-out: Ki): 1.5 nM

Cc1ccc(/C(=C\CN2CCCC2)c2ccccn2)cc1 [TRIPROLIDINE]
Drug uptake [13]: 55.6 ng/g
Drug uptake [15]: 55.6 ng
Drug uptake [19]: 7.1 ng/g
Kp at 2 h [22]: 4.5

CN(CCc1ccccc1)C1CCN(c2nc3ccccc3n2Cc2ccc(F)cc2)CC1
Ki ([6]; read-out: Ki): 89 nM
IC50 [3]: 502 nM
Ki ([5]; read-out: Ki): 2.4 nM

CN(C1CCOCC1)C1CCN(c2nc3ccccc3n2Cc2ccc(F)cc2)CC1
Drug uptake [13]: 55 ng/g
Drug uptake [15]: 39.4 ng
Ki [6]: 14700 nM
Drug uptake [19]: 18.1 ng/g
IC50 ([3]; read-out: IC50): 6360 nM
Kp at 2 h [22]: 3.5
Ki [5]: 3.3 nM

CN(C)C1CCN(c2nc3ccccc3n2Cc2ccc(F)cc2)CC1
Drug uptake [13]: 50 ng/g
Selectivity ratio [1]: > 1000
IC50 [2]: > 5000 nM
Drug uptake [15]: 55.3 ng
Drug uptake [19]: 10.9 ng/g
IC50 ([3]; read-out: IC50): 12800 nM
Kp at 2 h [22]: 4.6
Ki [4]: 57 nM
Ki ([5]; read-out: Ki): 1.8 nM

CN(c1nccc(=O)[nH]1)C1CCN(c2nc3ccccc3n2Cc2ccc(F)cc2)CC1 [MIZOLASTINE]
Drug uptake [13]: 0 ng/g
Drug uptake [15]: 55.6 ng
Ki ([6]; read-out: Ki): > 10000 nM
Drug uptake [19]: 6.3 ng/g
IC50 [25]: 441 nM
IC50 [3]: > 20000 nM
Ki [4]: 7260 nM
Ki ([5]; read-out: Ki): 2.7 nM

COCCN(C)C1CCN(c2nc3ccccc3n2Cc2ccc(F)cc2)CC1
IC50 [2]: > 5000 nM
IC50 ([3]; read-out: IC50): 4440 nM
Ki ([5]; read-out: Ki): 2.2 nM
